Values quoted from earlier work, collected in patent US6395296B1, “Soluble double metal salt of group IA and IIA of hydroxycitric acid, process of preparing the same and its use in beverages and other food products without effecting their flavor and properties” (priority 1997, dated 2002).

Key:
[1] = system: ATP dependent citrate-lyase; settings: key enzyme in diverting carbohydrate to fatty acids and cholesterol synthesis; Sullivan et al., Sergio
[2] = system: conversion of excess carbohydrates to fat; settings: in animals; established by several scientists including at Hoffman-La Roche

inhibition of ATP dependent citrate-lyase [1]: inhibit
Compound: O=C(O)CC(O)(C(=O)O)C(O)C(=O)O (single isomer, unassigned; (-)) [HCA, (−) Hydroxycitric acid]
conversion of excess carbohydrates to fat [2]: prevents the conversion of excess carbohydrates to fat
